Experiment [1] relates to interscapular BAT. Kind of experiment: Top-down whole-organism NIR fluorescence screening of dyes (ROI1/ROI2 contrast). It is filed as in vivo, nude mice. The note with it: for Ratio No 1 (ROI1/ROI2 average fluorescence intensity) / Ratio No 2 (ROI1/ROI2 average fluorescence intensity) / Ratio No 3 (ROI1/ROI2 average fluorescence intensity) / Ratio AVERAGE (mean ratio ROI1/ROI2): nude mice, one hour post-injection; for Ratio No 1 (ROI1/ROI2 average fluorescence intensity) / Ratio No 2 (ROI1/ROI2 average fluorescence intensity) / Ratio No 3 (ROI1/ROI2 average fluorescence intensity): 10 μg/mouse i.v.; for Ratio No 1 (ROI1/ROI2 average fluorescence intensity): first excitation/emission filter pair; for Ratio No 2 (ROI1/ROI2 average fluorescence intensity): second excitation/emission filter pair; for Ratio No 3 (ROI1/ROI2 average fluorescence intensity): third excitation/emission filter pair; for Ratio AVERAGE (mean ratio ROI1/ROI2): i.v., mean of three filter pairs, hit threshold >1.10; for visible contrast around the interscapular BAT area: in vivo NIR images. The method, then:
38 fluorescent dyes from commercial resources and from the inventors' laboratory were screened. Dyes with excitation range of 550-745 nm, emission range of 600-840 nm, and with molecular weight of less than 700 Da (except Cy5.5) (representative dyes are listed in FIG. 1d and the full list is shown in Table 2). Their hydrophobicities were not determined. The library was screened by intravenous tail injection of compounds into nude mice (10μg/mouse). Each dye was imaged with three optimized excitation/emission filter-pairs, and images at one hour after i.v. injection were acquired.
Top-down whole organism screening was performed as follows. Nude mice (nu/nu COX7) were purchased from Massachusetts General Hospital and Balb/c mice were from Jackson Laboratory. All animal experimental procedures were approved by the Institutional Animal Care and Use Committee (IACUC) at Massachusetts General Hospital. Dye stock solutions were prepared in DMSO. The final injection solution (0.1 mg/ml) was freshly prepared in a mixed solution of 20% DMSO, 20% Cremophor EL and 60% saline. Nude mice (n=5) were injected with a 100 μL dye solution via tail vein. For each imaging session, mice were anesthetized with a mixture of oxygen and isoflurane for 5 minutes, and then positioned into the imaging chamber of IVIS® Spectrum in vivo pre-clinical imaging system. Images were acquired at one-hour post-injection using sequence imaging with three excitation/emission filter pairs for each dye.
Hits selection was performed as follows. Hits from cell- or protein-based screening are usually selected by setting certain threshold. In the case of the top-down imaging screening, two methods were used (threshold and visible contrast) to select hits. First, three images obtained with three excitation/emission pairs were selected for each dye. These ex/em pairs were selected from the closest excitation and emission wavelengths of the tested dyes. For instance, 605/660 nm, 605/680 nm, 640/680 nm were selected for image acquisition of Nile blue (625/660 nm). The quantification of contrast for each image was calculated as a ratio of two ROIs (region of interest). ROI1 reflected the average signal from interscapular BAT and ROI2 was the average signal of the area that included BAT and white adipose tissue (WAT) around the interscapular site (FIG. 1b, left). The averaged fluorescent signal of ROI was used instead of the total signal, because the total signal depends on the area of ROI, whereas the averaged signal reflects the density of signal. The ratio of ROI1/ROI2 could reflect the signal/noise ratio of the tested probe, and could also reflect the selectivity of the probe for BAT over WAT. For each dye, three ROI1/ROI2 ratios obtained with the three filter pairs were calculated. The mean of the ratios was used as the threshold. If the mean ratio was >1.10, the dye was selected as a potential positive hit (FIG. 1c). Since the contrast of a dye in the top-down screening is in the visible range, the visible contrast around the interscapular BAT area was also tested for the hits with the mean ratio of >1.10. If both mean ratio and the visible contrast were positive, then the hit was subjected to re-testing procedure to validate its reliability as described below.
Although CRANAD-2 and CRANAD-3 were able to provide certain contrast for BAT in vivo, their excitation and emission wavelengths were still shorter than required for an ideal NIR imaging probe (both excitation and emission >640 nm). […] To seek better probes, a sub-library was synthesized based on the structures of the lead probes CRANAD-2 and -3. CRANAD-6, -19, -22, -24, -26, -32 and -43 were synthesized and tested (images and chemical structures, excitation and emission spectra are shown in FIG. 9 a-e). […] However, the ROI1/ROI2 ratio of CRANAD-22 was not improved (FIG. 9c).

Experiment [2] concerns interscapular BAT. Kind of experiment: Re-testing of hits with stepwise dissection and NIR imaging. It counts as in vivo, mice. Conditions: stepwise dissection. The method, then: Like protein/cell-based screening, hit re-testing experiments were conducted to validate the reliability of this approach. CRANAD-2, -3, LDS 722 and Rhodamine 640 were subjected to re-testing by repeating the above imaging procedure. Images were acquired one hour after probe injection.
Next, stepwise dissection and imaging were performed to track the source of the fluorescence contrast at the interscapular site. Skin and the thin WAT layer that covers BAT were first removed, and then BAT was dissected, and NIR images were captured at each step. […] The signal contribution from BAT (R(BAT)) was roughly estimated using the ratio of fluorescence signals acquired after (F(BAT)) and before (F(intact)) the first step dissection of skin and WAT.

Experimental findings from US9757477B2, “Imaging brown adipose tissue with curcumin derivatives” (The General Hospital Corporation, priority 2013, dated 2017) are described below.

Where “and” joins values, the source holds several entries; their conditions need not be identical. Equal entries are not always repeated.

On to `N=c1cc2oc3cc(N)ccc3nc-2c2ccccc12` [Cresyl Violet], for which, in the experiment with interscapular BAT [1], the “Ratio No 1 (ROI1/ROI2 average fluorescence intensity)” value was determined as 9.56E−01, the “Ratio No 2 (ROI1/ROI2 average fluorescence intensity)” value is on record as 9.72E−01, the “Ratio No 3 (ROI1/ROI2 average fluorescence intensity)” value came out at 1.02E+00 and the “Ratio AVERAGE (mean ratio ROI1/ROI2)” value is 9.81E−01.
For `CCN1/C(=C/C=C/C=C/c2oc3ccccc3[n+]2CC)Oc2ccccc21.[I-]` [DODC], in that order: 1.08E+00, 1.09E+00, 1.10E+00 and 1.09E+00.
For `CCN1/C(=C/C=C/C=C/C=C/c2oc3ccccc3[n+]2CC)Oc2ccccc21.[I-]` [DOTC], in that order: 9.48E−01, 9.44E−01, 9.52E−01 and 9.48E−01.
In the same order, the values of `CN1C(=CC=CC=CC2=[N+](C)c3ccccc3C2(C)C)C(C)(C)c2ccccc21.[I-]` [HIDC] are 1.01E+00, 1.01E+00, 1.02E+00 and 1.01E+00.
As for `CN1C(=CC=CC=CC=CC2=[N+](C)c3ccccc3C2(C)C)C(C)(C)c2ccccc21.[I-]` [HITC], in the experiment on interscapular BAT [1], the “Ratio No 1 (ROI1/ROI2 average fluorescence intensity)” value is 1.07E+00, the “Ratio No 2 (ROI1/ROI2 average fluorescence intensity)” value was 1.02E+00, the “Ratio No 3 (ROI1/ROI2 average fluorescence intensity)” value worked out at 1.06E+00 and the “Ratio AVERAGE (mean ratio ROI1/ROI2)” value is given as 1.05E+00.
Take `CC1(C)C(/C=C/C=C/C=C/C=C2\N(CCCCS(=O)(=O)[O-])c3ccc4ccccc4c3C2(C)C)=[N+](CCCCS(=O)(=O)[O-])c2ccc3ccccc3c21.[Na+]` [IR125]: in the experiment with interscapular BAT [1], the “Ratio No 1 (ROI1/ROI2 average fluorescence intensity)” value turned out to be 8.65E−01, the “Ratio No 2 (ROI1/ROI2 average fluorescence intensity)” value is on record as 9.76E−01, the “Ratio No 3 (ROI1/ROI2 average fluorescence intensity)” value amounted to 8.49E−01 and the “Ratio AVERAGE (mean ratio ROI1/ROI2)” value is on record as 8.97E−01.
For `CN1/C(=C/C=C2\CCCC(/C=C/C3=[N+](C)c4ccc5ccccc5c4C3(C)C)=C2Cl)C(C)(C)c2c1ccc1ccccc21.Cc1ccc(S(=O)(=O)[O-])cc1` [IR813], in that order: 1.08E+00, 9.91E−01, 1.08E+00 and 1.05E+00.
For `CC[n+]1ccccc1/C=C/C=C/c1ccc(N(C)C)cc1.[O-][Cl+3]([O-])([O-])[O-]` [LDS698], in that order: 1.03E+00, 1.06E+00, 1.04E+00 and 1.04E+00.
Turning to `CC[n+]1ccc(C=CC=Cc2ccc(N(C)C)cc2)cc1.[O-][Cl+3]([O-])([O-])[O-]` [LDS722], in the experiment on interscapular BAT [1], the “visible contrast around the interscapular BAT area” value is “weak contrast and no clear triangular contours”; the “Ratio No 1 (ROI1/ROI2 average fluorescence intensity)” value is 1.15E+00; the “Ratio No 2 (ROI1/ROI2 average fluorescence intensity)” value is 1.14E+00; the “Ratio No 3 (ROI1/ROI2 average fluorescence intensity)” value came out at 1.08E+00. For the same compound, the “Ratio AVERAGE (mean ratio ROI1/ROI2)” value in the experiment with interscapular BAT [1] is 1.13 and 1.13E+00. Besides, the “fluorescence signal from BAT (before vs after BAT removal)” value with interscapular BAT [2] is “no significant fluorescent signal was from BAT”.
On to `CN(C)c1ccc(/C=C/C=C/C2=[N+](C)c3ccccc3C2(C)C)cc1.[O-][Cl+3]([O-])([O-])[O-]` [LDS730], for which, in the experiment with interscapular BAT [1], the “Ratio No 1 (ROI1/ROI2 average fluorescence intensity)” value was determined as 1.03E+00, the “Ratio No 2 (ROI1/ROI2 average fluorescence intensity)” value is 1.08E+00, the “Ratio No 3 (ROI1/ROI2 average fluorescence intensity)” value was determined as 1.09E+00 and the “Ratio AVERAGE (mean ratio ROI1/ROI2)” value stood at 1.07E+00.
For `CC[n+]1c(/C=C/C=C/c2ccc(N(C)C)cc2)ccc2cc(N(C)C)ccc21.[O-][Cl+3]([O-])([O-])[O-]` [LDS751], in that order: 1.07E+00, 1.05E+00, 1.11E+00 and 1.08E+00.
In the same order, the values of `CC[n+]1ccc(/C=C/C=C/c2ccc(N(C)C)cc2)c2ccccc21.[O-][Cl+3]([O-])([O-])[O-]` [LDS798] are 1.00E+00, 1.00E+00, 9.88E−01 and 9.98E−01.
Consider `CCN=c1cc2oc3c4c5c(cc3nc-2c2ccccc12)CCCN5CCC4` [OX750], for which, in the experiment with interscapular BAT [1], the “Ratio No 1 (ROI1/ROI2 average fluorescence intensity)” value is recorded as 1.09E+00, the “Ratio No 2 (ROI1/ROI2 average fluorescence intensity)” value is given as 1.09E+00, the “Ratio No 3 (ROI1/ROI2 average fluorescence intensity)” value worked out at 1.04E+00 and the “Ratio AVERAGE (mean ratio ROI1/ROI2)” value was 1.07E+00.
Turning to `CC1=C(C)C(C)=[N+]2C1=C(C#N)c1c(C)c(C)c(C)n1[B-]2(F)F` [Pyromethene650], in the experiment with interscapular BAT [1], the “Ratio No 1 (ROI1/ROI2 average fluorescence intensity)” value is reported as 1.09E+00, the “Ratio No 2 (ROI1/ROI2 average fluorescence intensity)” value was 1.07E+00, the “Ratio No 3 (ROI1/ROI2 average fluorescence intensity)” value is 1.08E+00 and the “Ratio AVERAGE (mean ratio ROI1/ROI2)” value is reported as 1.08E+00.
With `O=C(O)c1ccccc1C1=c2cc3c4c(c2Oc2c1cc1c5c2CCCN5CCC1)CCC[N+]=4CCC3.[Cl-]` [Rhodamine640], in the experiment with interscapular BAT [1], the “visible contrast around the interscapular BAT area” value is “weak contrast and no clear triangular contours”; the “Ratio No 1 (ROI1/ROI2 average fluorescence intensity)” value is reported as 1.15E+00; the “Ratio No 2 (ROI1/ROI2 average fluorescence intensity)” value is listed as 1.15E+00; the “Ratio No 3 (ROI1/ROI2 average fluorescence intensity)” value is given as 1.15E+00. For the same compound, the “Ratio AVERAGE (mean ratio ROI1/ROI2)” value in the experiment on interscapular BAT [1] was 1.15 and 1.15E+00. For the same compound, the “fluorescence signal from BAT (before vs after BAT removal)” value with interscapular BAT [2] was “no significant signals were from BAT”.
For `CCN(CC)c1ccc2c(-c3ccccc3C(C)=O)c3ccc(=[N+](CC)CC)cc-3oc2c1` [RhodamineB], in the experiment with interscapular BAT [1], the “Ratio No 1 (ROI1/ROI2 average fluorescence intensity)” value is on record as 1.01E+00, the “Ratio No 2 (ROI1/ROI2 average fluorescence intensity)” value is on record as 1.01E+00, the “Ratio No 3 (ROI1/ROI2 average fluorescence intensity)” value was 9.54E−01 and the “Ratio AVERAGE (mean ratio ROI1/ROI2)” value is 9.90E−01.
For the compound Cy5.5, in the experiment with interscapular BAT [1], the “Ratio No 1 (ROI1/ROI2 average fluorescence intensity)” value was determined as 1.07E+00, the “Ratio No 2 (ROI1/ROI2 average fluorescence intensity)” value was 1.07E+00, the “Ratio No 3 (ROI1/ROI2 average fluorescence intensity)” value was found to be 1.06E+00 and the “Ratio AVERAGE (mean ratio ROI1/ROI2)” value was 1.07E+00.
For Sulforhodamine, in the experiment on interscapular BAT [1], the “Ratio No 1 (ROI1/ROI2 average fluorescence intensity)” value came out at 8.51E−01, the “Ratio No 2 (ROI1/ROI2 average fluorescence intensity)” value is recorded as 8.86E−01, the “Ratio No 3 (ROI1/ROI2 average fluorescence intensity)” value stood at 9.21E−01 and the “Ratio AVERAGE (mean ratio ROI1/ROI2)” value is 8.86E−01.
